In patent US11098010B2 (priority 2017, dated 2021) one finds EC50 data, which are given here for 31 compounds.

One test relates to HBV rcDNA in HepDE19 cells. Put plainly: HepDE19 assay with bDNA quantitation of HBV rcDNA. Conditions: HepDE19 cells, inhibition of rcDNA formation, 7 day incubation, top concentration 25 μM; read-out: DE-19 bDNA EC50. The class given is cell-based, hepatitis B virus (HBV).
As for `CC1(NC(=O)OCc2ccccn2)CCc2c(C(=O)Nc3ccc(F)c(Cl)c3)ccc(F)c21` (stereo not shown) [Compound 224, O-Pyridin-2-ylmethyl, N-(4-((3-chloro-4-fluorophenyl)carbamoyl)-7-fluoro-1-methyl-2,3-dihydro-1H-inden-1-yl) carbamate], the EC50 is 11 µM.
On the same count and under the same terms, the value for `CC1(NC(=O)OCc2ccccn2)CCc2c(C(=O)Nc3ccc(F)c(Cl)c3)ccc(F)c21` (stereo not shown) [Compound 225, O-Pyridin-2-ylmethyl, N-(4-((3-chloro-4-fluorophenyl)carbamoyl)-7-fluoro-1-methyl-2,3-dihydro-1H-inden-1-yl) carbamate] was 2 µM; that for `O=C(N[C@H]1CCc2c(C(=O)Nc3ccc(F)c(Cl)c3)cccc21)OC1CC1` [Compound 229, O-cyclopropyl, N-(S)-(4-((3-chloro-4-fluorophenyl)carbamoyl)-2,3-dihydro-1H-inden-1-yl) carbamate] was 0.36 µM; that for `O=C(N[C@H]1CCc2c(C(=O)Nc3ccc(F)c(Cl)c3)ccc(F)c21)OCc1nnco1` [Compound 231, O-(1,3,4-oxadiazol-2-yl)methyl, N-(S)-(4-((3-chloro-4-fluorophenyl)carbamoyl)-7-fluoro-2,3-dihydro-1H-inden-1-yl) carbamate] was 0.13 µM.
Still for that read-out and setting: the value for `COC(=O)NC1c2c(F)ccc(C(=O)Nc3ccc(F)c(F)c3)c2CC1OC` (stereo not shown) [Compound 244, O-methyl, N-(4-((3,4-difluorophenyl)carbamoyl)-7-fluoro-2-methoxy-2,3-dihydro-1H-inden-1-yl) carbamate] was 2 µM; that for `O=C(N[C@H]1CCc2c(C(=O)Nc3ccc(F)c(Cl)c3)ccc(F)c21)OCc1ncn(C2CCCCO2)n1` (stereo partly drawn) [Compound 248, O-(1-(tetrahydro-2H-pyran-2-yl)-1H-1,2,4-triazol-3-yl)methyl, N-((S)-4-((3-chloro-4-fluorophenyl)carbamoyl)-7-fluoro-2,3-dihydro-1H-inden-1-yl) carbamate] was 0.15 µM.

The test is the same for the next values; noted with them: Hepatitis B virus, HepDE19, 168 h, HepDE19 cells, inhibition of rcDNA formation, 7 day incubation, top concentration 25 μM; read-out: DE-19 bDNA EC50.
Turning to `O=C(N[C@H]1CCc2c(C(=O)Nc3ccc(F)c(Cl)c3)ccc(F)c21)OC1CC1` [Compound 226, O-cyclopropyl, N—(S)-(4-((3-chloro-4-fluorophenyl)carbamoyl)-7-fluoro-2,3-dihydro-1H-inden-1-yl)carbamate], the EC50 was 0.24 µM.
The same measure, in the same setting: to `CNS(=O)(=O)N[C@H]1CCc2c(C(=O)Nc3ccc(F)c(Cl)c3)ccc(F)c21` [Compound 227, (S)—N-(3-Chloro-4-fluorophenyl)-7-fluoro-1-((N-methylsulfamoyl)amino)-2,3-dihydro-1H-indene-4-carboxamide] belongs 0.43 µM; to `O=C(Nc1ccc(F)c(Cl)c1)c1ccc(F)c2c1CC[C@@H]2NS(=O)(=O)N1CCOCC1` [Compound 228, (S)—N-(3-Chloro-4-fluorophenyl)-7-fluoro-1-(morpholine-4-sulfonamido)-2,3-dihydro-1H-indene-4-carboxamide], 0.2 µM; to `CNS(=O)(=O)N[C@H]1CCc2c(C(=O)Nc3ccc(F)c(Cl)c3)cccc21` [Compound 230, (S)-N-(3-chloro-4-fluorophenyl)-1-((N-methylsulfamoyl)amino)-2,3-dihydro-1H-indene-4-carboxamide], 0.36 µM.
Turning to `CCS(=O)(=O)N[C@H]1CCc2c(C(=O)Nc3ccc(F)c(Cl)c3)ccc(F)c21` [Compound 232, (S)—N-(3-Chloro-4-fluorophenyl)-1-(ethylsulfonamido)-7-fluoro-2,3-dihydro-1H-indene-4-carboxamide], the EC50 was 0.24 µM.
As for `CCCS(=O)(=O)N[C@H]1CCc2c(C(=O)Nc3ccc(F)c(Cl)c3)ccc(F)c21` [Compound 233, (S)—N-(3-Chloro-4-fluorophenyl)-7-fluoro-1-(propylsulfonamido)-2,3-dihydro-1H-indene-4-carboxamide], the EC50 turned out to be 0.33 µM.
Consider `CC(C)CS(=O)(=O)N[C@H]1CCc2c(C(=O)Nc3ccc(F)c(Cl)c3)ccc(F)c21` [Compound 234, (S)—N-(3-Chloro-4-fluorophenyl)-7-fluoro-1-((2-methylpropyl)sulfonamido)-2,3-dihydro-1H-indene-4-carboxamide], for which the EC50 is 0.34 µM.
On the same count and under the same terms, to `CNC(=O)NC1c2c(F)ccc(C(=O)Nc3ccc(F)c(Cl)c3)c2CC1OC` (stereo not shown) [Compound 235, N-(3-chloro-4-fluorophenyl)-7-fluoro-2-methoxy-1-(3-methylureido)-2,3-dihydro-1H-indene-4-carboxamide] belongs 4.5 µM; to `COC(=O)NC1c2c(F)ccc(C(=O)Nc3ccc(F)c(Cl)c3)c2CC1OC` (stereo not shown) [Compound 236, O-methyl, N-(4-((3-chloro-4-fluorophenyl)carbamoyl)-7-fluoro-2-methoxy-2,3-dihydro-1H-inden-1-yl)carbamate], 0.34 µM.
Still for that read-out and setting: to `CC(C)NS(=O)(=O)N[C@H]1CCc2c(C(=O)Nc3ccc(F)c(Cl)c3)ccc(F)c21` [Compound 237, (S)-N-(3-chloro-4-fluorophenyl)-7-fluoro-1-((N-isopropylsulfamoyl)amino)-2,3-dihydro-1H-indene-4-carboxamide] belongs 0.58 µM; to `CC(C)S(=O)(=O)N[C@H]1CCc2c(C(=O)Nc3ccc(F)c(Cl)c3)ccc(F)c21` [Compound 238, (S)—N-(3-Chloro-4-fluorophenyl)-7-fluoro-1-((1-methylethyl)sulfonamido)-2,3-dihydro-1H-indene-4-carboxamide], 0.19 µM; to `O=C(Nc1ccc(F)c(Cl)c1)c1ccc(F)c2c1CC[C@@H]2NS(=O)(=O)C1CCCC1` [Compound 239, (S)—N-(3-Chloro-4-fluorophenyl)-1-(cyclopentanesulfonamido)-7-fluoro-2,3-dihydro-1H-indene-4-carboxamide], 0.24 µM.
Consider `O=C(Nc1ccc(F)c(Cl)c1)c1ccc(F)c2c1CC[C@@H]2NS(=O)(=O)C1CCCCC1` [Compound 240, (S)—N-(3-Chloro-4-fluorophenyl)-1-(cyclohexanesulfonamido)-7-fluoro-2,3-dihydro-1H-indene-4-carboxamide], for which the EC50 stood at 0.51 µM.
Same read-out and setting: to `CNC(=O)NC1CC(C)(C)c2c(C(=O)Nc3ccc(F)c(Cl)c3)ccc(F)c21` (stereo not shown) [Compound 241, N-(3-chloro-4-fluorophenyl)-7-fluoro-3,3-dimethyl-1-(3-methylureido)-2,3-dihydro-1H-indene-4-carboxamide] belongs 24 µM; to `O=C(Nc1ccc(F)c(Cl)c1)c1cccc2c1CC[C@@H]2NS(=O)(=O)NC1CC1` [Compound 242, (S)-N-(3-chloro-4-fluorophenyl)-1-((N-cyclopropylsulfamoyl)amino)-2,3-dihydro-1H-indene-4-carboxamide], 0.57 µM.
The same measure, in the same setting: the value for `O=C(Nc1ccc(F)c(Cl)c1)c1ccc(F)c2c1CC[C@@H]2NS(=O)(=O)NC1CC1` [Compound 243, (S)-N-(3-chloro-4-fluorophenyl)-1-((N-cyclopropylsulfamoyl)amino)-7-fluoro-2,3-dihydro-1H-indene-4-carboxamide] was 0.16 µM; that for `CNC(=O)NC1c2c(F)ccc(C(=O)Nc3ccc(F)c(F)c3)c2CC1OC` (stereo not shown) [Compound 245, N-(3,4-difluorophenyl)-7-fluoro-2-methoxy-1-(3-methylureido)-2,3-dihydro-1H-indene-4-carboxamide] was 4.9 µM; that for `COC1Cc2c(C(=O)Nc3ccc(F)c(F)c3)ccc(F)c2C1NC(=O)OCc1ccccn1` (stereo not shown) [Compound 246, O-pyridin-2-ylmethyl, N-(4-((3,4-difluorophenyl)carbamoyl)-7-fluoro-2-methoxy-2,3-dihydro-1H-inden-1-yl)carbamate] was 2.7 µM.
On the same count and under the same terms, the value for `COC1Cc2c(C(=O)Nc3ccc(F)c(Cl)c3)ccc(F)c2C1NC(=O)OCc1ccccn1` (stereo not shown) [Compound 247, O-pyridin-2-ylmethyl, N-(4-((3-chloro-4-fluorophenyl)carbamoyl)-7-fluoro-2-methoxy-2,3-dihydro-1H-inden-1-yl)carbamate] was 0.68 µM; that for `O=C(Nc1ccc(F)c(Cl)c1)c1ccc(F)c2c1CCC2=O` [Compound 251, N-(3-Chloro-4-fluorophenyl)-7-fluoro-1-oxo-2,3-dihydro-1H-indene-4-carboxamide] was 0.55 µM; that for `[2H]C([2H])(OC(=O)N[C@H]1CCc2c(C(=O)Nc3ccc(F)c(Cl)c3)ccc(F)c21)c1ncn(C([2H])([2H])[2H])n1` [Compound 252, O-((1-(Methyl-d3)-1H-1,2,4-triazol-3-yl)methyl-d2, N—(S)-(4-((3-chloro-4-fluorophenyl)carbamoyl)-7-fluoro-2,3-dihydro-1H-inden-1-yl) carbamate] was 0.13 µM.
For `N#CCCOC(=O)N[C@H]1CCc2c(C(=O)Nc3ccc(F)c(Cl)c3)ccc(F)c21` [Compound 255, O—(S)-2-Cyanoethyl, N-4-(3-chloro-4-fluorophenylcarbamoyl)-7-fluoro-2,3-dihydro-1H-inden-1-yl carbamate], the EC50 was 0.08 µM.
On the same count and under the same terms, the value for `N#CCCCOC(=O)N[C@H]1CCc2c(C(=O)Nc3ccc(F)c(Cl)c3)ccc(F)c21` [Compound 256, O—(S)-3-Cyanopropyl, N-4-(3-chloro-4-fluorophenylcarbamoyl)-7-fluoro-2,3-dihydro-1H-inden-1-yl carbamate] was 0.24 µM.

Still in this test, the particulars now being: Hepatitis B virus, HepDE19, 168 h, read-out: DE-19 bDNA EC50 (μM), HepDE19 cells, inhibition of rcDNA formation, 7 day incubation, top concentration 25 μM.
As to `O=C(N[C@H]1CCc2c(C(=O)Nc3ccc(F)c(Cl)c3)ccc(F)c21)OCc1ncn(COP(=O)(O)O)n1` [Compound 253, O-(1-((Phosphonoxy)methyl)-1H-1,2,4-triazol-3-yl)methyl, N—(S)-(4-((3-chloro-4-fluorophenyl)carbamoyl)-7-fluoro-2,3-dihydro-1H-inden-1-yl) carbamate], the EC50 was found to be 0.12 µM.
Same read-out and setting: to `O=C(N[C@H]1CCc2c(C(=O)Nc3ccc(F)c(Cl)c3)ccc(F)c21)OCc1ccn(COP(=O)(O)O)n1` [Compound 254, Sodium (S)-(3-((((4-((3-chloro-4-fluorophenyl)carbamoyl)-7-fluoro-2,3-dihydro-1H-inden-1-yl)carbamoyl)oxy)methyl)-1H-pyrazol-1-yl)methyl phosphate] belongs 0.57 µM.
